In article PMC2248166, “Quantitative peptide binding motifs for 19 human and mouse MHC class I molecules derived using positional scanning combinatorial peptide libraries” (Immunome Research, 2008):

Experiments:
HLA A*3201 = HLA A*3201 (Homo sapiens, UniProt P04439, A270S/D101S/D185E/E176V/E277Q/F133L/G103R/G107R/G231S/H175R/I121M/I218V/I322F/K168Q/L105A/L300P/L318F/M331R/P208A/P217A/Q94H/R106L/R138Q/S129P/T104I/T323A/T345S/V100E/V321M/V358M); experiment: biochemical; assay type: binding
HLA B*1503 = HLA B*1503 (Homo sapiens, UniProt P01889, A329T/A93T/A95T/C349S/D201E/D98Y/E187L/E204Q/K202T/N87E/Q94N/R155S/R180L/S121R/S35A/V306I/V36M/Y140S/Y91S); experiment: biochemical; assay type: binding
HLA B*5802 = HLA B*5802 (Homo sapiens, UniProt P01889, A329T/C349S/D201E/D98Y/E176V/E187L/E204Q/E69T/G107R/I218V/I90N/K202T/L105A/N104I/N87E/Q89R/Q94S/R106L/R155S/R180L/R86G/S101N/S121W/S35A/S48A/V127L/V306I/V36M/Y140S/Y91M); assay type: binding
HLA B*0702 = HLA B*0702 (Homo sapiens, UniProt P01889); assay type: binding; details: positional scanning combinatorial 9-mer library; normalized to 1.0 for the best residue at each position
HLA A*3001 = HLA A*3001 (Homo sapiens, UniProt P04439, D140H/D185E/E176W/F33S/G80R/H175R/K168Q/R138E/R41S); experiment: biochemical; assay type: binding
HLA B*1501 = HLA B*1501 (Homo sapiens, UniProt P01889, A329T/A93T/A95T/C349S/D201E/D98Y/E187L/E204Q/E69M/E70A/K202T/N87E/Q94N/R155S/R180W/S121R/S35A/S48A/V306I/V36M/Y140S/Y91S); experiment: biochemical; assay type: binding
HLA B*5401 = HLA B*5401 (Homo sapiens, UniProt P01889, A329T/C349S/D138N/D201E/E176V/E187T/E204Q/E69G/I76V/K202T/L119W/R155S/R180L/S121T/S35A/S48A/V127L/V306I/V36M/Y140L); assay type: binding
H-2 D^d = H-2 D^d (Mus musculus, UniProt P01900); assay type: binding
H-2 D^d, sequence (P01900 whole entry, looked up): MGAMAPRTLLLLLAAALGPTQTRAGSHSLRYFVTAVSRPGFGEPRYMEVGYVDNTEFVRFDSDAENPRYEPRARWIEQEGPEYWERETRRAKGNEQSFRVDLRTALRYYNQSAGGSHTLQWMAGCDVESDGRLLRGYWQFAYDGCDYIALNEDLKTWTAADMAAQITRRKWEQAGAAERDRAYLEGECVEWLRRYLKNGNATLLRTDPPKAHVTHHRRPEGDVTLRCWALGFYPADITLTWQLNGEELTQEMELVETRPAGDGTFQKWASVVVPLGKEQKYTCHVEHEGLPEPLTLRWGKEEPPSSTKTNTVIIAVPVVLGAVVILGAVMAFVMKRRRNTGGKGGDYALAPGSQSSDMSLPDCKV

HLA B*5101 = HLA B*5101 (Homo sapiens, UniProt P01889, A329T/A93T/A95T/C349S/D138N/D201E/D98Y/E187L/E204Q/E69T/G107R/I218V/K202T/L105A/L119W/N104I/Q94N/R106L/R155S/R180L/S101N/S121T/S35A/S48A/V306I/V36M/Y195H/Y91F); assay type: binding
HLA B*5801 = HLA B*5801 (Homo sapiens, UniProt P01889, A329T/C349S/D201E/D98Y/E176V/E187L/E204Q/E69T/G107R/I218V/I90N/K202T/L105A/L119I/N104I/N87E/Q89R/Q94S/R106L/R155S/R180L/R86G/S101N/S121R/S35A/S48A/T118I/V127L/V306I/V36M/Y140S/Y91M); assay type: binding
HLA A*6802 = HLA A*6802 (Homo sapiens, UniProt P04439, A269V/D140Y/D185E/E176V/E277Q/E87N/F33Y/G231S/I121R/I166T/I218V/L180W/L300P/L318F/N151K/P208A/P217A/Q86R/R138H/R169H/S129P/T345S/V36M); assay type: binding
HLA B*5301 = HLA B*5301 (Homo sapiens, UniProt P01889, A329T/A93T/A95T/C349S/D201E/D98Y/E176V/E187L/E204Q/E69T/G107R/I218V/K202T/L105A/L119I/N104I/Q94N/R106L/R155S/R180L/S101N/S121R/S35A/S48A/T118I/V127L/V306I/V36M/Y140S/Y91F); assay type: binding
H-2 K^k = H-2 K^k (Mus musculus, UniProt P04223); assay type: binding
H-2 K^k, sequence (P01887 21-119): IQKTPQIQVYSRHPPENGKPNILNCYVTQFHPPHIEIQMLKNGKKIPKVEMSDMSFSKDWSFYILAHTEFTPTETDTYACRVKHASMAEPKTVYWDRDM
H-2 K^k, sequence (P04223 22-369): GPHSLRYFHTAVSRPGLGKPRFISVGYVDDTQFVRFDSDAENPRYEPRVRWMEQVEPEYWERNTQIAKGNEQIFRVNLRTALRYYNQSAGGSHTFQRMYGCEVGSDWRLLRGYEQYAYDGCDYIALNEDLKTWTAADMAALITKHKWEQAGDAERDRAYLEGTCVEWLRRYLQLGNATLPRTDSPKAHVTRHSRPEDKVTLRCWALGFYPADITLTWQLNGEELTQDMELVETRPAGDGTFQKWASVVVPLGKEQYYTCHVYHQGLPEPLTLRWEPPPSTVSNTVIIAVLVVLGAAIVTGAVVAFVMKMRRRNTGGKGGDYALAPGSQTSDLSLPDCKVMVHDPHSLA

HLA B*3501 = HLA B*3501 (Homo sapiens, UniProt P01889, A329T/A93T/A95T/C349S/D201E/D98Y/E176V/E187L/E204Q/E69T/I218V/K202T/L119I/Q94N/R155S/R180L/S121R/S35A/S48A/T118I/V127L/V306I/V36M/Y140S/Y91F); assay type: binding
H-2 D^b = H-2 D^b (Mus musculus, UniProt P01899); assay type: binding
H-2 D^b, sequence (P01887 21-119): as the sequence (P01887 21-119) above
H-2 D^b, sequence (P01899 25-362): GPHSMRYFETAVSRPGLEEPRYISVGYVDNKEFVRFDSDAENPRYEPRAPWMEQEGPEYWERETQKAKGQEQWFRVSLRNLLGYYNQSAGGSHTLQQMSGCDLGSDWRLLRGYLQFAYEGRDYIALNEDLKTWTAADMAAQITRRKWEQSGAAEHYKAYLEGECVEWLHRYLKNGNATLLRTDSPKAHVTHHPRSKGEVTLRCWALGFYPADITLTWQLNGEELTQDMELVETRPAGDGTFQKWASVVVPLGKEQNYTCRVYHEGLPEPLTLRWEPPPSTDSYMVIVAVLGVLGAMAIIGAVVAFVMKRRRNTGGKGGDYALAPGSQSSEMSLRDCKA

HLA B*2705 = HLA B*2705 (Homo sapiens, UniProt P01889, D138H/D201E/E176V/E204Q/G107R/H137Y/K202T/N104T/N87E/Q56L/Q94K/R106L/R155S/R180L/S101D/S121N/S48T/Y140D/Y33H/Y91C); assay type: binding; details: positional scanning combinatorial 9-mer library; normalized to 1.0 for the best residue at each position
HLA B*0801 = HLA B*0801 (Homo sapiens, UniProt P01889, A93T/A95T/D138N/E176V/E187T/K202T/Q94N/R180D/S35A/V36M/Y33D/Y91F); experiment: biochemical; assay type: binding
HLA A*0201 = HLA A*0201 (Homo sapiens, UniProt P04439, D140Y/D185E/D98H/E176V/E277Q/G131W/G231S/I119V/I121R/I166T/I218V/L300P/L318F/N151K/N90K/P208A/P217A/Q86G/Q94H/R138H/R169H/T345S); details: positional scanning combinatorial 9-mer library; normalized to 1.0 for the best residue at each position

Row | Sequence | Normalized average relative binding affinity (ARB), HLA A*3201 (HLA A*3201) | Normalized average relative binding affinity (ARB), HLA B*1503 (HLA B*1503) | Normalized average relative binding affinity (ARB), HLA B*5802 (HLA B*5802) | Normalized average relative binding affinity (ARB), HLA B*0702 (HLA B*0702) | Normalized average relative binding affinity (ARB), HLA A*3001 (HLA A*3001) | Normalized average relative binding affinity (ARB), HLA B*1501 (HLA B*1501) | Normalized average relative binding affinity (ARB), HLA B*5401 (HLA B*5401) | Normalized average relative binding affinity (ARB), H-2 Dd (H-2 D^d) | Normalized average relative binding affinity (ARB), HLA B*5101 (HLA B*5101) | Normalized average relative binding affinity (ARB), HLA B*5801 (HLA B*5801) | Normalized average relative binding affinity (ARB), HLA A*6802 (HLA A*6802) | Normalized average relative binding affinity (ARB), HLA B*5301 (HLA B*5301) | Normalized average relative binding affinity (ARB), H-2 Kk (H-2 K^k) | Normalized average relative binding affinity (ARB), HLA B*3501 (HLA B*3501) | Normalized average relative binding affinity (ARB), H-2 Db (H-2 D^b) | Normalized average relative binding affinity (ARB), HLA B*2705 (HLA B*2705) | Normalized average relative binding affinity (ARB), HLA B*0801 (HLA B*0801) | Normalized average relative binding affinity (ARB), HLA A*0201 (HLA A*0201)
1 | XXVXXXXXX [3064.0058] | 0.31 | 1.0 | 0.56 | 0.040 | 0.0059 | 0.14 | 0.034 | 0.0094 | 0.25 | 1.0 | 0.64 | 0.11 | 0.26 | 0.19 | 0.17 | 0.19 | 0.024 | 0.25
2 | XXWXXXXXX [3064.0059] | 0.95 | 0.35 | 0.95 | 0.14 | 0.0080 | 0.16 | 1.0 | 0.0028 | 0.47 | 0.29 | 0.70 | 0.076 | 0.48 | 0.61 | 0.18 | 0.68 | 0.19 | 0.58
3 | XXXAXXXXX [3064.0061] | 0.38 | 0.41 | 0.51 | 0.23 | 0.48 | 0.40 | 0.41 | 0.52 | 0.39 | 0.46 | 0.24 | 0.36 | 0.63 | 0.42 | 0.69 | 0.28 | 0.40 | 0.90
4 | XXXCXXXXX [3064.0062] | 0.12 | 0.34 | 0.52 | 0.18 | 0.31 | 0.39 | 0.22 | 0.56 | 0.26 | 0.23 | 0.13 | 0.14 | 0.37 | 0.089 | 1.0 | 0.25 | 0.41 | 0.20
5 | XXXDXXXXX [3064.0063] | 0.14 | 0.13 | 0.069 | 0.16 | 0.22 | 0.30 | 0.28 | 0.30 | 0.74 | 0.17 | 0.31 | 0.26 | 0.46 | 0.18 | 0.072 | 0.26 | 0.072 | 0.91
6 | XXYXXXXXX [3064.0060] | 1.0 | 0.44 | 0.72 | 0.061 | 0.016 | 0.60 | 0.11 | 0.0028 | 0.38 | 0.34 | 0.26 | 0.078 | 0.52 | 0.29 | 0.24 | 0.40 | 0.13 | 0.88
